Eight molecules from patent US10174132B2, “Heparan sulfate synthesis” (UNIVERSITY OF GEORGIA RESEARCH FOUNDATION, INC., priority 2009, dated 2019) can be followed below.

For orientation: pIC50 means −log10 of the IC50, conventionally taken in molar units.

This test addresses T1, recombinant human BACE-1 (Homo sapiens, UniProt P56817).
T1 construct: purchased R & D Systems
Kind of test: BACE-1 FRET peptide cleavage assay. In kind it is biochemical. Particulars: FRET peptide with Swedish variant, 20 mM sodium acetate, 0.1% Triton-X-100, pH 4.5, 2 h, 25° C., triplicate; for IC50: read-out: IC50 (μg/ml), inhibitory activity for cleavage of FRET peptide by BACE-1 (converted); for pIC50: read-out: IC50 (μmol), inhibitory activity for cleavage of FRET peptide by BACE-1. Here is the method: The ability of the HS oligosaccharides to inhibit BACE-1 cleavage of APP was assessed using a fluorescent resonance energy transfer (FRET) peptide cleavage assay employing the Swedish amino acid variant FRET peptide 5-FAM-Glu-Val-Asn-Leu-Asp-Ala-Phe-Lys(QXL520)-OH. When intact, the amino terminal fluorophore is quenched, but upon enzymatic cleavage, it is released from quencher and fluoresces at 520 nm.
BACE inhibition assays: The ability of the compounds to inhibit BACE-1 cleavage of APP was assessed using a fluorescent resonance energy transfer (FRET) peptide cleavage assay employing the FRET peptide HiLyteFluor™488-Glu-Val-Asn-Leu-Asp-Ala-Glu-Phe-Lys(QXL520)-OH (Anaspec Inc, San Jose, Calif.), containing the Swedish amino acid variant. Assays were performed in triplicate in 96-well black plates (Greiner Bio-One Ltd) in a total volume of 100 μl of 20 mM sodium acetate, 0.1% Triton-X-100, pH 4.5 using 114 pmoles FRET peptide/well and 0.1 μg of recombinant human BACE-1 (R & D Systems; specific activity >3.5 pmol/min/μg). Inhibitors were added at 0.01 to 50 μg/mL and mixed with enzyme prior to addition of substrate. Appropriate controls for enzyme activity and background fluorescence were employed and plates were incubated (2 h, 25° C.) with reaction stopped by addition of 100 μl 2.5 M sodium acetate. Fluorescence 480ex/520em was measured on a Polarstar plate reader (BMG LabTechnologies, U.K.) and data were analyzed by plotting log concentration of inhibitor against percent inhibition and using a logistic sigmoidal curve fitting function using OriginPro 8 software (OriginLab Corporation, MA).

pIC50: −log10 of the molar value. Counter-ions that a name gives are not always drawn. Like-named read-outs stand apart in the source and are kept apart here.

T1 sequence (P56817 46-501): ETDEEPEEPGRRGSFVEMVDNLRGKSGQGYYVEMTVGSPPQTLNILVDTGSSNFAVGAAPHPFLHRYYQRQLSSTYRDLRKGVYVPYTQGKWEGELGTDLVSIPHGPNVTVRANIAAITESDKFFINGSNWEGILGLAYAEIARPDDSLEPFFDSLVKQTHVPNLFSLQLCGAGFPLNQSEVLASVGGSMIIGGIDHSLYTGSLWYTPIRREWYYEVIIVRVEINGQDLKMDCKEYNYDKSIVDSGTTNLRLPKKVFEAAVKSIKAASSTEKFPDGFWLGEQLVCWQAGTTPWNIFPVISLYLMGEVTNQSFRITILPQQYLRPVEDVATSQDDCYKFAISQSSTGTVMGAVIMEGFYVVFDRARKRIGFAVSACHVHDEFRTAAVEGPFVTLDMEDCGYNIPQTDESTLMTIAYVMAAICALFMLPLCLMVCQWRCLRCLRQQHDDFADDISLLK

In the case of `CC(=O)NC1C(OC2C(C(=O)O)OC(OC3C(COS(=O)(=O)O)OC(OCCCCCN)C(NC(C)=O)C3O)C(OS(=O)(=O)O)C2O)OC(COS(=O)(=O)O)C(OC2OC(C(=O)O)C(O)C(O)C2O)C1O` [Compound 85, 5-Aminopentyl [((3-D-glucopyranosyluronate)-(1→4)-O-(2-acetamido-2-deoxy-6-O-sulfonato-α-D-glucopyranoside)-(1→4)-O-(2-O-sulfonato-α-L-idopyranosyluronate)]-(1→4)-2-deoxy-2-acetamido-6-O-sulfonate-α-D-glucopyranosidepentasodium salt], the IC50 is 152 µM and the pIC50 was 3.86.
The like results for `NCCCCCOC1OC(COS(=O)(=O)O)C(OC2OC(C(=O)O)C(OC3OC(COS(=O)(=O)O)C(OC4OC(C(=O)O)C(OC5OC(COS(=O)(=O)O)C(OC6OC(C(=O)O)C(O)C(O)C6O)C(O)C5NS(=O)(=O)O)C(O)C4O)C(O)C3NS(=O)(=O)O)C(O)C2O)C(O)C1NS(=O)(=O)O` [Compound 69, 5-aminopentyl [(β-D-glucopyranosyluronate)-(1→4)-(2-deoxy-2-sulfoamino-6-O-sulfonato-α-D-glucopyranoside)-(1→4)-O-(α-L-idopyranosyluronate)-(1→4)-O-(2-deoxy-2-sulfoamino-6-O-sulfanate-α-D-glucopyranoside)-(1→4)-(β-D-glucopyranosyluronate)]-(1→4)-O-2-deoxy-N-sulfoamino-6-O-sulfonate-α-D-glucopyranoside nonasodium salt] were, in that order, 40.1 µM and 4.44.
`NCCCCCOC1OC(COS(=O)(=O)O)C(OC2OC(C(=O)O)C(OC3OC(COS(=O)(=O)O)C(OC4OC(C(=O)O)C(O)C(O)C4O)C(O)C3NS(=O)(=O)O)C(O)C2OS(=O)(=O)O)C(O)C1NS(=O)(=O)O` [Compound 86, 5-Aminopentyl [(β-D-glucopyranosyluronate)-(1→4)-O-(2-deoxy-2-sulfamino-6-O-sulfonate-α-D-glucopyranoside)-(1→4)-O-(2-O-sulfonate-α-L-idopyranosyluronate)-(1→4)-2-deoxy-2-sulfoamino-6-O-sulfonate-α-D-glucopyranosideheptasodium salt]: the IC50 was > 255 µM.
On the same count and under the same terms, to `CC(=O)NC1C(OC2C(C(=O)O)OC(OC3C(COS(=O)(=O)O)OC(OCCCCCN)C(NC(C)=O)C3O)C(OS(=O)(=O)O)C2O)OC(COS(=O)(=O)O)C(OC2OC(C(=O)O)C(O)C(O)C2O)C1O` [Compound 84, 5-Aminopentyl [(α-L-idopyranosyluronate)-(1→4)-O-(2-acetamido-2-deoxy-6-O-sulfonate-α-D-glucopyranoside)-(1→4)-O-(2-O-sulfonato-α-L-idopyranosyl-uronate)]-(1→4)-2-deoxy-2-acetamido-6-O-sulfonate-α-D-glucopyranoside penta sodium salt] belongs > 272 µM.
`CC(=O)NC1C(OC2C(C(=O)O)OC(OC3C(COS(=O)(=O)O)OC(OCCCCCN)C(NC(C)=O)C3O)C(O)C2O)OC(COS(=O)(=O)O)C(OC2OC(C(=O)O)C(O)C(O)C2O)C1O` [Compound 80, 5-aminopentyl [(α-L-idopyranosyluronate)-(1→4)-O-(2-acetamido-2-deoxy-6-O-sulfonate-α-D-glucopyranoside)-(1→4)-O-(β-D-glucopyranosyluronate)]-(1→4)-(2-acetamido-2-deoxy-6-O-sulfonate-α-D-glucopyranosidetetrasodium salt]: the IC50 was 102 µM and the pIC50 was 4.03.
In the same order, the values of `CC(=O)NC1C(OC2C(C(=O)O)OC(OC3C(COS(=O)(=O)O)OC(OCCCCCN)C(NC(C)=O)C3O)C(O)C2O)OC(COS(=O)(=O)O)C(OC2OC(C(=O)O)C(O)C(O)C2O)C1O` [Compound 76, 5-aminopentyl [(β-D-glucopyranosyluronate)-(1→4)-(2-acetamido-2-deoxy-6-O-sulfanate-α-D-glucopyranoside)-(1→4)-O-(β-D-glucopyranosyluronate-(1→4)-O-2-acetamido-2-deoxy-6-O-sulfanate-α-D-glucopyranosidetetrasodium salt] are 38.2 µM and 4.46.
The like results for `CC(=O)NC1C(OC2C(C(=O)O)OC(OC3C(COS(=O)(=O)O)OC(OCCCCCN)C(NC(C)=O)C3O)C(O)C2O)OC(COS(=O)(=O)O)C(OC2OC(C(=O)O)C(O)C(O)C2O)C1O` [Compound 82, 5-aminopentyl [(α-L-idopyranosyluronate)-(1→4)-(2-acetamido-2-deoxy-6-O-sulfonate-α-D-glucopyranoside)-(1→4)-O-(α-L-idopyranosyluronate-(1→4)-O-2-acetamido-2-deoxy-6-O-sulfonate-α-D-glucopyranosidetetrasodium salt] were, in that order, 34.2 µM and 4.49.
Regarding `CC(=O)NC1C(OC2C(C(=O)O)OC(OC3C(COS(=O)(=O)O)OC(OCCCCCN)C(NC(C)=O)C3O)C(O)C2O)OC(COS(=O)(=O)O)C(OC2OC(C(=O)O)C(O)C(O)C2O)C1O` [Compound 78, 5-Aminopentyl[β-D-glucopyranosyluronate-(1→4)-(2-acetamido-2-deoxy-6-O-sulfonate-α-D-glucopyranoside)-(1→4)-α-L-idopyranosyluronate)]-(1→4)-2-acetamido-2-deoxy-6-O-sulfonate-α-D-glucopyranoside tetrasodium salt], the IC50 is > 294 µM.
